One series concerns the target BuChE from equine serum (Equus caballus, UniProt P81908). The series can be described thus: BuChE inhibition, Ellman's method. The series is classed as biochemical. A general note: Ellman's reagent forms a yellow product with free thiols.
Another series has as its target AChE from electric eel (Electrophorus electricus, UniProt O42275). The series can be described thus: AChE inhibition, Ellman's method. Format: biochemical. The settings on record: IC50 ± SD (μM) AChE, means ± SD of three experiments.
The subject of series [1] is scopolamine induced mice model of dementia. Briefly: Elevated plus maze. The series is classed as in vivo. The settings on record: n = 6, SEM.
The next series has as its system scopolamine induced mice. Briefly: Social recognition test, scopolamine induced mice. The series is classed as in vivo.
Series [2] has as its target T1, Aβ1-42 (Homo sapiens, UniProt P05067). Briefly: TEM study of inhibition of Aβ1-42 fibril formation. The settings on record: Aβ1-42 50 μM, compound 50 μM, 37 °C, 48 h. Format: biochemical.
For series [3], the system named is SH-SY5Y cells. Briefly: Neuroprotection against H2O2-induced death, MTT assay. The settings on record: 200 μM H2O2 for 24 h. Background: Tetrazolium dyes change colour on reduction, which living cells bring about.
The test system of series [4] is SH-SY5Y cells. The series can be described thus: In vitro cytotoxicity, MTT assay. Format: cell-based, human. The settings on record: 1 and 5 μM, 24 h, MTT.
Series [5] is described as follows: In vitro cytotoxicity, MTT assay. The settings on record: human, SH-SY5Y cells. The series is classed as cell-based, human.
Series [6] has as its target T1, Aβ1-42. The series can be described thus: Confocal laser scanning microscopy of Aβ1-42 aggregation inhibition. Format: biochemical. The settings on record: Aβ1-42 co-incubated with compound, 48 h, 37 °C.
In another series the target is AChE (Electrophorus electricus, UniProt O42275). Briefly: Kinetic characterization of AChE inhibition, Lineweaver–Burk plot. Format: biochemical. The settings on record: Lineweaver–Burk reciprocal plots; compound at 2, 6 and 8 μM.
Sequence of AChE (O42275 24-633): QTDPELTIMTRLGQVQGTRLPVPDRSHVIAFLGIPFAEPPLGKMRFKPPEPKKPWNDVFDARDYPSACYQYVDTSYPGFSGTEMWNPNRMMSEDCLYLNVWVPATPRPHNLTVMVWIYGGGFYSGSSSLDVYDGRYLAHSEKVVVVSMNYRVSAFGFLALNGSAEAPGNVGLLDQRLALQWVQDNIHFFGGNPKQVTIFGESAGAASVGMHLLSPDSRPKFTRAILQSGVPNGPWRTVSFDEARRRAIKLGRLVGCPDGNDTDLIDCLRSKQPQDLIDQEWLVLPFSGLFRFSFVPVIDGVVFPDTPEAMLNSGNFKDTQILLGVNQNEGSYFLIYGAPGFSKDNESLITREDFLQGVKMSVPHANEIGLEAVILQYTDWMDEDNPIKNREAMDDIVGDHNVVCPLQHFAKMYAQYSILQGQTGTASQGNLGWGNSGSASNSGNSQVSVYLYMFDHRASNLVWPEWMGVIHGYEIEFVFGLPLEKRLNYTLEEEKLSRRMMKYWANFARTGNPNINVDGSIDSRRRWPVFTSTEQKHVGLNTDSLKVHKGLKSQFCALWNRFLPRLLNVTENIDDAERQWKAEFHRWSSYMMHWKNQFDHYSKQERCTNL

Data on 18 molecules can be found in PMC9053591 (RSC Advances, 2020).

Broadly, the IC50 is the concentration that inhibits the measured activity by half. Broadly, the viability is a read-out of living cells in per cent, often relative to untreated cells. High values mean better survival, low ones a greater loss of cells.

Values joined by “and” are separate entries in the source; they are usually repeats but may differ in a detail not shown here. Identical values can stand only once. Counter-ions that a name gives are not always drawn.

T1 sequence (P05067 672-713): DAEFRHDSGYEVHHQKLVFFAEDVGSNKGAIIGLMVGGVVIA
Sequence of BuChE from equine serum (P81908 whole entry): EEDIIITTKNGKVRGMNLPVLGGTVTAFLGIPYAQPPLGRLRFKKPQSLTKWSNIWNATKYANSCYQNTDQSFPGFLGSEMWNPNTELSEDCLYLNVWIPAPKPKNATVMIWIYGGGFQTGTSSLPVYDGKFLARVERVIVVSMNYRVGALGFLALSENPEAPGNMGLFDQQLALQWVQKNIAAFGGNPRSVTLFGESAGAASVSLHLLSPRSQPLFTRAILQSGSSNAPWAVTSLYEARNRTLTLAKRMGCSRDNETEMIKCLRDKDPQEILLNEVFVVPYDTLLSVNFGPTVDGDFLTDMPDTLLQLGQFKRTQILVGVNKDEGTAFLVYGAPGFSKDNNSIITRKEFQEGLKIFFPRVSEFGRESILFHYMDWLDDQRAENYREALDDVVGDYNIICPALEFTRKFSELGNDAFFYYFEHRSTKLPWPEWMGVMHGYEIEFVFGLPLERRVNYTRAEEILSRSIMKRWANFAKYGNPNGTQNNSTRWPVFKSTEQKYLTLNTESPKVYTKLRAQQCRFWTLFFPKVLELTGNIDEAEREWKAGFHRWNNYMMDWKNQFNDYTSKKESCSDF
Sequence of AChE from electric eel (O42275 24-633): as the sequence (O42275 24-633) above

As for `CS(=O)(=O)c1ccc2nc(NC(=O)CCN3CCN(Cc4ccc5c(c4)OCO5)CC3)sc2c1` [Compound 16, 3-(4-Benzo[1,3]dioxol-5-ylmethyl-piperazin-1-yl)-N-(6-methanesulfonyl-benzothiazol-2-yl)-propionamide], the IC50 is more than 100 µM at BuChE from equine serum and 5.24 µM at AChE from electric eel.

Regarding `CN1[C@@H]2C[C@@H](OC(=O)[C@H](CO)c3ccccc3)C[C@H]1[C@@H]1O[C@@H]12` [scopolamine, Scopolamine hydrobromide, reference compound], in series [1] (scopolamine 3 mg kg−1 i.p. alone, retention trial), the “Transfer latency (TL)” value was determined as 22.00 ± 0.81 s. Besides, the “T2/T1 ratio (second interaction trial/first interaction trial)” value in the series with scopolamine induced mice (scopolamine 3 mg kg−1 alone, mean SEM of 6 animals) amounted to 1.103 ± 0.037.

For `COc1cc(/C=C/C(=O)CC(=O)/C=C/c2ccc(O)c(OC)c2)ccc1O` [Curcumin, reference compound], at Aβ1-42 [2], the “Aβ1-42 fibril formation by TEM” value is “small dissociated aggregates and no characteristic fibrils of Aβ1-42”.

In the case of `CS(=O)(=O)c1ccc2nc(NC(=O)CCN3CCN(C(=O)OCc4ccccc4)CC3)sc2c1` [Compound 15, 4-[2-(6-Methanesulfonyl-benzothiazol-2-ylcarbamoyl)-ethyl]-piperazine-1-carboxylic acid benzyl ester], the IC50 on BuChE from equine serum was more than 100 µM; against AChE from electric eel it was 19.5 ± 0.452 µM.

With `CS(=O)(=O)c1ccc2nc(NC(=O)CCN3CCN(Cc4ccccc4)CC3)sc2c1` [Compound 10, 3-(4-Benzyl-piperazin-1-yl)-N-(6-methanesulfonyl-benzothiazol-2-yl)-propionamide], the IC50 is more than 100 µM against BuChE from equine serum and 7.83 µM at AChE from electric eel.

In the case of `COc1ccc(N2CCN(CCC(=O)Nc3nc4ccc(S(C)(=O)=O)cc4s3)CC2)cc1` [Compound 9, N-(6-Methanesulfonyl-benzothiazol-2-yl)-3-[4-(4-methoxy-phenyl)-piperazin-1-yl]-propionamide], the IC50 against BuChE from equine serum was more than 100 µM; against AChE from electric eel, 14.5 ± 1.03 µM.

Turning to `CS(=O)(=O)c1ccc2nc(NC(=O)CCN3CCN(c4ccc(C(F)(F)F)cc4)CC3)sc2c1` [Compound 17, N-(6-Methanesulfonyl-benzothiazol-2-yl)-3-[4-(4-trifluoromethyl-phenyl)-piperazin-1-yl]-propionamide], the IC50 against BuChE from equine serum is more than 100 µM; against AChE from electric eel, 26.4 ± 0.551 µM.

Take `CS(=O)(=O)c1ccc2nc(NC(=O)CCN3CCN(c4ccccc4)CC3)sc2c1` [Compound 4, N-(6-Methanesulfonyl-benzothiazol-2-yl)-3-(4-phenyl-piperazin-1-yl)-propionamide]: the results for the IC50 against BuChE from equine serum and on AChE from electric eel were more than 100 µM and 24.1 ± 0.721 µM, respectively.

With `COc1cc2c(cc1OC)C(=O)C(CC1CCN(Cc3ccccc3)CC1)C2` (centres unmarked) [Donepezil, reference compound], the “Transfer latency (TL)” value in series [1] (scopolamine 3 mg kg−1 + donepezil 5 mg kg−1 i.p., 7 days) was found to be 15.08 ± 1 s.

In the case of `CS(=O)(=O)c1ccc2nc(NC(=O)CCN3CCN(C(c4ccccc4)c4ccccc4)CC3)sc2c1` [Compound 11, 3-(4-Benzhydryl-piperazin-1-yl)-N-(6-methanesulfonyl-benzothiazol-2-yl)-propionamide], the IC50 is more than 100 µM on BuChE from equine serum; 4.54 µM and 4.55 µM on AChE from electric eel.

With `CS(=O)(=O)c1ccc2nc(NC(=O)CCN3CCN(c4ncccn4)CC3)sc2c1` [Compound 13, N-(6-Methanesulfonyl-benzothiazol-2-yl)-3-(4-pyrimidin-2-yl-piperazin-1-yl)-propionamide], the IC50 was more than 100 µM at BuChE from equine serum and 10.9 ± 0.657 µM at AChE from electric eel.

As to `CS(=O)(=O)c1ccc2nc(NC(=O)CCN3CCN(c4ccc([N+](=O)[O-])cc4)CC3)sc2c1` [Compound 7, N-(6-Methanesulfonyl-benzothiazol-2-yl)-3-[4-(4-nitro-phenyl)-piperazin-1-yl]-propionamide], the figures for the IC50 against BuChE from equine serum and on AChE from electric eel were more than 100 µM and 11.3 ± 1.8 µM, respectively.

Consider `Cc1ccc(N2CCN(CCC(=O)Nc3nc4ccc(S(C)(=O)=O)cc4s3)CC2)cc1` [Compound 8, N-(6-Methanesulfonyl-benzothiazol-2-yl)-3-(4-p-tolyl-piperazin-1-yl)-propionamide], for which the IC50 was more than 100 µM at BuChE from equine serum and 20.2 ± 1.44 µM at AChE from electric eel.

Take `OO` [Compound H2O2, hydrogen peroxide]: the “Cell viability with H2O2 alone” value in the series with SH-SY5Y cells [3] turned out to be 54.90%.

Turning to `CS(=O)(=O)c1ccc2nc(NC(=O)CCN3CCN(c4ccc(F)cc4)CC3)sc2c1` [Compound 5, 3-[4-(4-Fluoro-phenyl)-piperazin-1-yl]-N-(6-methanesulfonyl-benzothiazol-2-yl)-propionamide], the IC50 is more than 100 µM against BuChE from equine serum and 18.3 ± 0.777 µM against AChE from electric eel.

Consider `CS(=O)(=O)c1ccc2nc(NC(=O)CCN3CCN(C(=O)c4ccco4)CC3)sc2c1` [Compound 14, 3-[4-(Furan-2-carbonyl)-piperazin-1-yl]-N-(6-methanesulfonyl-benzothiazol-2-yl)-propionamide], for which the IC50 on BuChE from equine serum was more than 100 µM; against AChE from electric eel, 14.6 ± 0.438 µM.

Regarding `CS(=O)(=O)c1ccc2nc(NC(=O)CCN3CCN(c4ccccn4)CC3)sc2c1` [Compound 12, N-(6-Methanesulfonyl-benzothiazol-2-yl)-3-(4-pyridin-2-yl-piperazin-1-yl)-propionamide], in the series with SH-SY5Y cells [4], the Cytotoxicity entry is given as “no cytotoxicity”. The viability at 24 h, 10 µM in [5] is more than 67%. Further, the “Aβ1-42 aggregation by confocal laser scanning microscopy (ThT fluorescence)” value on Aβ1-42 [6] is listed as “proficiently prevents Aβ1-42 fibril formation”. Moreover, the “Type of AChE inhibition” value on AChE was “uncompetitive type of inhibition”. Also, the IC50 against BuChE from equine serum was more than 100 µM; against AChE from electric eel it was 2.31 µM and 2.32 µM. The “Aβ1-42 fibril formation by TEM” value at Aβ1-42 [2] is “small dissociated aggregates and no characteristic fibrils of Aβ1-42”. For the same molecule, the “Transfer latency (TL)” value in series [1] (scopolamine 3 mg kg−1 + compound 10 mg kg−1 i.p., 7 days) is 12.81 ± 2.08 s; in series [1] (scopolamine 3 mg kg−1 + compound 20 mg kg−1 i.p., 7 days), 12.62 ± 2.60 s. Further, in the series on scopolamine induced mice (scopolamine + compound 20 mg kg−1, mean SEM of 6 animals), the “T2/T1 ratio (second interaction trial/first interaction trial)” value was found to be 0.377 ± 0.00072.

With `CS(=O)(=O)c1ccc2nc(NC(=O)CCN3CCN(c4ccc(Cl)cc4)CC3)sc2c1` [Compound 6, 3-[4-(4-Chloro-phenyl)-piperazin-1-yl]-N-(6-methanesulfonyl-benzothiazol-2-yl)-propionamide], the IC50 is more than 100 µM at BuChE from equine serum and 13 ± 0.813 µM on AChE from electric eel.
